Experimental data from patent US7868003B2, “Substituted 4-phenyltetrahydroisoquinolines, pharmaceutical compositions comprising them and therapeutic methods for their use” (Sanofi-Aventis, priority 2005, dated 2011).
Counter-ions that a name gives are not always drawn.

These compounds were tested against T1, sodium-proton exchanger subtype 3 (NHE3) (Homo sapiens, UniProt P48764) (assay: recovery of intracellular pH (pHi) of LAP1 cells stably expressing NHE3 after acidification (BCECF, FLIPR)). Settings: pH recovery in percent of maximum recovery, XLFit, read-out: IC50 (inhibitory action on the NHE3).
T1 construct: expressed in transfected cells
T1 sequence (P48764 26-834): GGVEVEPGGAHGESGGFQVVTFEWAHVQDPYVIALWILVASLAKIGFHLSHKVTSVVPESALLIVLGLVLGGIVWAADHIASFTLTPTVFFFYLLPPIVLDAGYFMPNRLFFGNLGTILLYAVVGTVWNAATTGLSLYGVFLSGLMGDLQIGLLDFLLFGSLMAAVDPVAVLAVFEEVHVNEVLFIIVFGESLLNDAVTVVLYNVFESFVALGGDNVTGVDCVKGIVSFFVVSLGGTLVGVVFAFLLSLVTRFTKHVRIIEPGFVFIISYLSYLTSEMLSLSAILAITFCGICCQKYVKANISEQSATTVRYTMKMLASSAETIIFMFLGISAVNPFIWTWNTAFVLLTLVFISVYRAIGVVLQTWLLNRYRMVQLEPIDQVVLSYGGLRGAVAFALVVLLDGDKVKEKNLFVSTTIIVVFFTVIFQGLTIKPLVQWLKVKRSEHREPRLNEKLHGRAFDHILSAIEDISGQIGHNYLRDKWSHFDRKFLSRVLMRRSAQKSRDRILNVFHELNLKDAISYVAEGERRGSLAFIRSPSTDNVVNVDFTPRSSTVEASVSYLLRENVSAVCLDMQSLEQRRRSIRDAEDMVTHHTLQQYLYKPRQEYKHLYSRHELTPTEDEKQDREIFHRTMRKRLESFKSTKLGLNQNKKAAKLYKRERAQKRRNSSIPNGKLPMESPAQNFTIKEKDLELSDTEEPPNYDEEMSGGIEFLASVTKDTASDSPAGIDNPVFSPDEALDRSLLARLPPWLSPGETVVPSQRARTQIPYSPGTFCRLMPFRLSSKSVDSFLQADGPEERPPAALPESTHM
Assay type: cell-based
Protocol: In this test, the recovery in the intracellular pH (pHi) of LAP1 cells, which stably express the sodium-proton exchanger subtype 3 (NHE3), after an acidification was determined. This recovery sets in even under bicarbonate-free conditions in the case of functioning NHE3. To this end, the pHi was determined with the pH-sensitive fluorescent dye BCECF (Molecular Probes, Eugene, Oreg., USA; the precursor BCECF-AM is used). The cells were first incubated with BCECF (5 μM BCECF-AM) in NH4Cl buffer (NH4Cl buffer: 115 mM cholineCl, 20 mM NH4Cl, 5 mM KCl, 1 mM CaCl2, 1 mM MgCl2, 20 mM Hepes, 5 mM glucose; a pH of 7.4 is established with 1 M KOH). The intracellular acidification was induced by washing the cells incubated in NH4Cl buffer with NH4Cl-free buffer (133.8 mM choline chloride, 4.7 mM KCl, 1.25 mM CaCl2, 1.25 mM MgCl2, 0.97 mM K2HPO4, 0.23 mM KH2PO4, 5 mM Hepes, 5 mM glucose; a pH of 7.4 is established with 1 M KOH). After the washing operation, 90 μl of the NH4Cl-free buffer were left on the cells. The pH recovery was started by the addition of 90 μl of Na^+-containing buffer (133.8 mM NaCl, 4.7 mM KCl, 1.25 mM CaCl2, 1.25 mM MgCl2, 0.97 mM Na2HPO4, 0.23 mM NaH2PO4, 10 mM Hepes, 5 mM glucose; a pH of 7.4 is established with 1 M NaOH) in the analytical instrument (FLIPR, “Fluorometric Imaging Plate Reader”, Molecular Devices, Sunnyvale, Calif., USA). The BCECF fluorescence was determined at an excitation wavelength of 498 nm and the FLIPR emission filter 1 (band gap from 510 to 570 nm). The subsequent changes in fluorescence were registered for two minutes as a measure of the pH recovery. For the calculation of the NHE3-inhibitory potential of the tested substances, the cells were tested first in buffers in which full pH recovery, or none at all, took place. For full pH recovery (100%), the cells were incubated in Na^+-containing buffer (see above), and Na^+-free buffer for the determination of the 0% value (see above). The substances to be tested were made up in Na^+-containing buffer. The recovery in the intracellular pH at each tested concentration of a substance was expressed in percent of the maximum recovery. From the percentages of the pH recovery, the IC50 value of the particular substance for the NHE3 was calculated by means of the program XLFit (idbs, Surrey, UK).

| SMILES | IC50 [nM] |
| --- | --- |
| CN1Cc2c(Cl)cc(Cl)cc2[C@H](c2cccc(N3C(=O)C=CC3=O)c2)C1 [Example 10] | 47 |
| CN1Cc2c(Cl)cc(Cl)cc2[C@@H](c2ccccc2N2C(=O)CCC2=O)C1 [Example 34] | 29200 |
| CN1Cc2c(Cl)cc(Cl)cc2[C@H](c2ccccc2N2CCCS2(=O)=O)C1 [Example 51, (R)-6,8-Dichloro-4-[2-(1,1-dioxo-1-λ^6-isothiazolidin-2-yl)phenyl]-2-methyl-1,2,3,4-tetrahydroisoquinoline hydrochloride] | 141 |
| CN1Cc2c(Br)cc(Cl)cc2C(c2ccccc2N2CCCC2=O)C1 (stereo not drawn) [Example 64, 1-[2-(8-Bromo-6-chloro-2-methyl-1,2,3,4-tetrahydroisoquinolin-4-yl)-phenyl]pyrrolidin-2-one] | 250 |
| CN1Cc2c(Cl)cc(Cl)cc2[C@H](c2ccccc2N2CCCC2=O)C1 [Example 35, 1-[2-((R)-6,8-Dichloro-2-methyl-1,2,3,4-tetrahydroisoquinolin-4-yl)phenyl]-pyrrolidin-2-one trifluoroacetate] | 82 |
| CSCCC1NC(=O)N(c2ccccc2[C@@H]2CN(C)Cc3c(Cl)cc(Cl)cc32)C1=O (mixture of isomers) [Example 57, (R and S)-3-[2-((R)-6,8-Dichloro-2-methyl-1,2,3,4-tetrahydroisoquinolin-4-yl)phenyl]-5-(2-methylsulfanylethyl)imidazolidine-2,4-dione trifluoroacetic acid salt] | 1400 |
| CN1Cc2c(Cl)cc(Cl)cc2[C@H](c2ccccc2N2CCOC2=O)C1 [Example 46, 3-[2-((R)-6,8-Dichloro-2-methyl-1,2,3,4-tetrahydroisoquinolin-4-yl)phenyl]-oxazolidin-2-one] | 220 |
| CN1Cc2c(Cl)cc(Cl)cc2[C@H](c2cccc(N3C(=O)CNC3=O)c2)C1 [Example 4, 3-[3-((S)-6,8-Dichloro-2-methyl-1,2,3,4-tetrahydroisoquinolin-4-yl)phenyl]-imidazolidine-2,4-dione hydrochloride] | 129 |
| CN1CC(=O)N(c2ccccc2[C@@H]2CN(C3CC3)Cc3c(Cl)cc(Cl)cc32)C1=O [Example 55, 3-[2-((R)-6,8-Dichloro-2-cyclopropyl-1,2,3,4-tetrahydroisoquinolin-4-yl)-phenyl]-1-methylimidazolidine-2,4-dione hydrochloride] | 120 |
| CN1Cc2c(Cl)cc(Cl)cc2[C@H](c2ccccc2N2C(=O)CCC2=O)C1 [Example 7, 1-[2-((R)-6,8-Dichloro-2-methyl-1,2,3,4-tetrahydroisoquinolin-4-yl)phenyl]-pyrrolidine-2,5-dione hydrochloride] | 39 |
| CC(C)CC1NC(=O)N(c2ccccc2[C@@H]2CN(C)Cc3c(Cl)cc(Cl)cc32)C1=O (stereo partly drawn) [Example 58] | 7400 |
| CN1Cc2c(Cl)cc(Cl)cc2[C@H](c2ccc(N3C(=O)CCC3=O)cc2)C1 [Example 14] | 119 |
| CN1Cc2c(Cl)cc(Cl)cc2[C@H](c2ccccc2N2C(=O)COCC2=O)C1 [Example 44, 4-[2-((R)-6,8-Dichloro-2-methyl-1,2,3,4-tetrahydroisoquinolin-4-yl)phenyl]-morpholine-3,5-dione trifluoroacetic acid salt] | 220 |
| CN1Cc2c(Cl)cc(Cl)cc2[C@H](c2ccccc2N2C(=O)CSC2=O)C1 [Example 42, 3-[2-((R)-6,8-Dichloro-2-methyl-1,2,3,4-tetrahydroisoquinolin-4-yl)phenyl]-thiazolidine-2,4-dione] | 69 |
| CN1Cc2c(Cl)cc(Cl)cc2[C@H](c2ccc(N3C(=O)CCCC3=O)cc2)C1 [Example 16] | 222 |
| CN1Cc2c(Cl)cc(Cl)cc2C(c2ccc(N3CCNS3(=O)=O)cc2)C1 (stereo not drawn) [Example 8, 6,8-Dichloro-4-[4-(1,1-dioxo-1-λ^6-[1,2,5]thiadiazolidin-2-yl)phenyl]-2-methyl-1,2,3,4-tetrahydroisoquinoline] | 2590 |
| CC1CC(C)C(=O)N(c2ccccc2[C@@H]2CN(C)Cc3c(Cl)cc(Cl)cc32)C1=O (stereo partly drawn) [Example 29] | 1200 |
| CN1Cc2c(Cl)cc(Cl)cc2[C@H](c2cccc(N3CCCCC3=O)c2)C1 [Example 38, 1-[3-((S)-6,8-Dichloro-2-methyl-1,2,3,4-tetrahydroisoquinolin-4-yl)phenyl]-piperidin-2-one] | 461 |
| O=C1CCC(=O)N1c1ccccc1[C@@H]1CNCc2c(Cl)cc(Cl)cc21 [Example 52, 1-[2-((R)-6,8-Dichloro-1,2,3,4-tetrahydroisoquinolin-4-yl)phenyl]-pyrrolidine-2,5-dione trifluoroacetic acid salt] | 12300 |
| CN1Cc2c(Cl)cc(Cl)cc2[C@H](c2ccccc2-n2cc[nH]c2=O)C1 [Example 40, 1-[2-((R)-6,8-Dichloro-2-methyl-1,2,3,4-tetrahydroisoquinolin-4-yl)phenyl]-1,3-dihydroimidazol-2-one hydrochloride] | 131 |
| CN1Cc2c(Cl)cc(Cl)cc2[C@H](c2ccccc2N2C(=O)COC2=O)C1 [Example 43, 3-[2-((R)-6,8-Dichloro-2-methyl-1,2,3,4-tetrahydroisoquinolin-4-yl)phenyl]-oxazolidine-2,4-dione] | 49 |
